Data on 23 compounds can be found in patent US7312302B2, “Compositions for the detection of enzyme activity in biological samples and methods of use thereof” (Oncolmmunin, Inc., priority 1997, dated 2007).

Non-standard residues stand in square brackets, D forms with d. Primed or numbered codes have the meaning given here. No end group written: not given here. *: point of attachment. F1 = 5-carboxytetramethylrhodamine (donor fluorophore); F1(3) = carboxytetramethylrhodamine; Fmoc = O=C(OCC1c2ccccc2-c2ccccc21)*; code B = not defined here; code J = not defined here; Cbz = O=C(OCc1ccccc1)*; F1″ = not defined here; C5 = not defined here

The subject of one data set is Jurkat cells, HL-60 cells, human lymphocyte lines, A1.1 cells, murine primary thymocytes. Nature of the data set: Cellular uptake of substrates by fluorescence microscopy, flow cytometry, HPLC. It counts as cell-based. As to conditions: viable cells. The procedure:
The compounds listed in Table 6 were synthesized and assayed for cellular uptake. Cellular internalization of the substrates was tested using Jurkat cells (a human acute T cell leukemic line), HL-60 cells (a human promyelocytic leukemic line), human lymphocyte lines, A1.1 cells (a murine T-cell line), and murine primary thymocytes. Procedures used in determining substrate uptake by viable cells are provided in Example 6 (for the HPLC procedures), in Example 2 (for the fluorescence microscopic analysis), and in Example 3 (for the flow cytometric analysis) a summary of these analyses with respect to cellular uptake of substrates is presented in this example.
The elastase substrate, Fm—K[F1]DAIPNluSIPK[F1]GY (SEQ ID NO:185), (where F1 was carboxytetramethylrhodamine, Fm was Fmoc, K[F1] was F1 covalently attached through the epsilon amino group of lysine (K), and Fm—K is the Fmoc group covalently attached at the alpha amino group of the amino terminal lysine residue) was used with HL-60 cells. Cells were incubated with various concentrations of elastase substrate ranging from 10 nM to 10 μM for 5 minutes to 60 minutes. Then the cells were diluted 5-fold with RPMI 1640 medium containing 5% serum or with phosphate buffered saline. The samples were centrifuged and washed once more with 1 ml of washing solution. After centrifugation and removal of the washing solution, cell pellets were loosened with about 25 ul of medium and these cells were transferred to a glass capillary. Capillary tubes were then placed on a glass microscope slide and examined under a fluorescence microscope using standard rhodamine filters.
For apoptosis-related protease activity determination, 10 μM concentration of the compounds listed in Example 8 (compound structures 2 through 13) were incubated with cells for 30 min. to 3 hours. The cells were then washed similarly twice. Using glass capillary tubes, the washed cells were transferred and examined under a fluorescence microscope.
The concentration of substrates used in flow cytometric analysis was 10 M in RPMI1640 medium containing 4 to 10% fetal calf serum. Cell densities during incubation with the chosen substrates ranged from 50,000 cells per ml to 4,000,000 per ml. Incubation times were from 30 min. to 3 hours at 37° C. and incubation volumes were 50 μL to 2 ml. After incubation with substrate for 30 to 60 min. cell suspensions were diluted 10-fold with ice cold Hank's Buffered Saline Solution (HBSS). This filtered cell suspension was then subjected to flow cytometric analysis using a 488 nm excitation source. Becton Dickenson, Inc.'s flow cytometer, FacSort, was used in the flow cytometric analysis. Typically, 10,000 to 30,000 events per sample were collected.
A general note: A flow cytometer gives signals particle by particle.
For the compound “Z-K[F1]DBJGDEVDGIDGJPK[F1]GY (Cbz-K(F1″)D[code B][code J]GDEVDGIDG[code J]PK(F1″)GY; reading uncertain; also: printed as Z-K[F1]DBJGDEVDGIDGJPK[F1]GY) [Compound 12]”, the “cellular uptake (Table 6)” value was “efficient cellular uptake”.

In the case of Fm-K[F1]DAIPNluSIPK[F1]GY [Compound 1], the “cellular uptake (Table 6)” value is “efficient cellular uptake”.

For the compound Fm-DAIPNluSIPK[F1]GY [Compound 3], the “cellular uptake (Table 6)” value is given as “does not result in significant cellular uptake”.

Turning to “K[F1]DYBADGIDPK[F1]GY (K(F1″)DY[code B]ADGIDPK(F1″)GY; reading uncertain; also: printed as K[F1]DYBADGIDPK[F1]GY) [Compound 9]”, the “cellular uptake (Table 6)” value was “not optimum for cellular uptake”.

Turning to “K[F1]DBDEVDGIDPK[F1]GY (K(F1″)D[code B]DEVDGIDPK(F1″)GY; reading uncertain; also: printed as K[F1]DBDEVDGIDPK[F1]GY) [Compound 5]”, the “cellular uptake (Table 6)” value is reported as “not optimum for cellular uptake”.

Consider “Fm-K[F1]DBDEVNGIDPK[F1]GY (Fmoc-K(F1″)D[code B]DEVNGIDPK(F1″)GY; reading uncertain; also: printed as Fm-K[F1]DBDEVNGIDPK[F1]GY) [Compound 6]”, for which the “cellular uptake (Table 6)” value is recorded as “efficient cellular uptake”.

In the case of “Fm-K[F1]DBDEVDGIDPK[F1]GY (Fmoc-K(F1″)D[code B]DEVDGIDPK(F1″)GY; reading uncertain; also: printed as Fm-K[F1]DBDEVDGIDPK[F1]GY) [Compound 4]”, the “cellular uptake (Table 6)” value is recorded as “efficient cellular uptake”.

Take “K[F1]DBDEVNGIDPK[F1]GY (K(F1″)D[code B]DEVNGIDPK(F1″)GY; reading uncertain; also: printed as K[F1]DBDEVNGIDPK[F1]GY) [Compound 7]”: the “cellular uptake (Table 6)” value is “not optimum for cellular uptake”.

For K[F1]DAIPNluSIPK[F1]GY [Compound 2], the “cellular uptake (Table 6)” value was “not optimum for cellular uptake”.

“Fm-K[F1]DBEVDGIDPK[F1]GY (Fmoc-K(F1″)D[code B]EVDGIDPK(F1″)GY; reading uncertain; also: printed as Fm-K[F1]DBEVDGIDPK[F1]GY) [Compound 8]”: the “cellular uptake (Table 6)” value is given as “efficient cellular uptake”.

As for “Fm-K[F1]DBGDEVDGIDGPK[F1]GY (K(F1)D[code B]GDEVDGIDGPK(F1)GY; not fully specified (N-terminus); printed as Fm-K[F1]DBGDEVDGIDGPK[F1]GY; reading uncertain) [Compound 10]”, the “cellular uptake (Table 6)” value is recorded as “efficient cellular uptake”.

The target in another data set is T1, CPP32 protease (Homo sapiens, UniProt P42574).
T1 construct: served as a direct measure of the intracellular CPP32 protease activity; endogenous in cells
T1 sequence (P42574 29-277): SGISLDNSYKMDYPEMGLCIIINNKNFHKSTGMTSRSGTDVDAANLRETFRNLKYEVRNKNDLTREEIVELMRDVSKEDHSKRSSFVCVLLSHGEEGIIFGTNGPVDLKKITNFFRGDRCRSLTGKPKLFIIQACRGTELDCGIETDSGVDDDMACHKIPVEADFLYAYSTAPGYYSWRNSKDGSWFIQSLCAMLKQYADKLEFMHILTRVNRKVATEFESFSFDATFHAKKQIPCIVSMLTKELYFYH
As to the kind of experiment: Cell lysate hydrolysis of DEVD-AFC, competitive substrate inhibition (anti-Fas-stimulated Jurkat cell lysate). It counts as biochemical. Particulars: concentration raised to 25 μM; 50 μM DEVD-AFC, 37° C. The procedure: The level of CPP32 protease activity in the 6 hr ant-Fas-stimulated Jurkat cell lysate was examined using the protease substrate, DEVD-AFC (where AFC is aminofluoromethyl coumarin) 50 μM substrate concentration at 37° C. The buffer used was 50 mM HEPES, pH7.5, 10% w/v sucrose, 0.1% w/v CHAPS.) Fluorescence intensity changes were monitored with an SLM 48000 spectrofluorometer. […] As the concentrations of DEVD, DEVN, and ICE were raised to 25 μM, the rate of DEVD-AFC hydrolysis was decreased.
For “K[F1]DYBADGIDPK[F1]GY (K(F1″)DY[code B]ADGIDPK(F1″)GY; reading uncertain; also: printed as K[F1]DYBADGIDPK[F1]GY) [Compound 9]”, the “rate of DEVD-AFC hydrolysis in presence of substrate” value (“rate of DEVD-AFC hydrolysis” for short) is reported as “decreased”.

For “K[F1]DBDEVDGIDPK[F1]GY (K(F1″)D[code B]DEVDGIDPK(F1″)GY; reading uncertain; also: printed as K[F1]DBDEVDGIDPK[F1]GY) [Compound 5]”, the “rate of DEVD-AFC hydrolysis” value is given as “decreased”.

On to “K[F1]DBDEVNGIDPK[F1]GY (K(F1″)D[code B]DEVNGIDPK(F1″)GY; reading uncertain; also: printed as K[F1]DBDEVNGIDPK[F1]GY) [Compound 7]”, for which the “rate of DEVD-AFC hydrolysis” value is “decreased”.

A further data set deals with DEVDase activity (caspase 3/7). As to the kind of experiment: DEVDase activity in apoptotic thymocyte extract using PhiPhiLux substrate, with protease inhibitors. It is filed as biochemical, mouse. As to conditions: apoptotic thymocyte extract, FIG. 5. How it is done: FIG. 5 illustrates the inhibition of DEVDase activity in apoptotic thymocyte extract using PhiPhiLux™ substrate. An extract of mouse thymocytes exposed to 0.1 mM dexamethasone for 6 h was incubated in fluorometer cuvettes at 37° C. with 10 mM PhiPhiLux™ substrate with or without the indicated protease inhibitors. Enzymatic activity was calculated from the rate of increase of fluorescence.
Single cell suspensions of thymocytes were cultured in RPMI 1640 with 10% FCS at a concentration of 10 6 cells/ml. Dexamethasone (final concentration, 0.1 mM) and ZVAD (OMe)FMK (final concentration, 50 mM) were added at the indicated times from stock solutions in DMSO (100 mM for dexamethasone and 200 mM for ZVAD[OMe]FMK). For antiFas stimulation, wells in a 24 well plate were coated with antiFas antibody (20 mg/ml; […] per well) overnight at 378 C. After twice washing the wells with medium containing 10% FCS, 4 3 10 6 thymocytes were added per well. After culture at 378 C in a 5% CO2 atmosphere for the indicated times, cells were centrifuged and resuspended in 75 ml of each substrate (10 mM) in 1.5 ml Eppendorf tubes. The open tubes were placed in the CO2 incubator for an additional 60 min. After washing in saline, cells were analyzed by flow cytometry. Caspase activity measurements in extracts with several known inhibitors and noninhibitors were carried out using fluorometers from Photon Technology International and SLMAMINCO. Cell lysates were prepared using a cell lysate buffer consisting of 50 mM Hepes, pH 7.5, 10% (wt/vol) sucrose, 0.1% (wt/vol) CHAPS, 0.5% (wt/vol) Triton X100, and 10 mM DTT. The substrate (10 mM) was prepared in 50 mM Hepes, pH 7.5, with 10 mM DTT. All measurements were made at 378 C using a thermostated cell holder in a 150 ml quartz cuvette (3 3 3. 45 mm; Starna Cells, Inc.). The temperature of the substrate solution was preequilibrated for 20 min, ensuring temperature equilibration by having a flat base line before cell lysate addition. A 10 ml aliquot from an apoptotic thymocyte lysate was added to 110 ml of substrate solution. The fluorescence intensity was then monitored for 30-60 min. The initial velocity was calculated from the linear portion of the fluorescence increase. Various amounts of inhibitors were added to the cell lysate for 20 min before addition of the cell lysate mixture to the substrate solution.
The caspase substrates used in these studies were based on optimal peptide recognition motifs for various caspases as reported by peptide library studies (2) and are described in Table I. To assess whether cleavage of these substrates in apoptotic thymocytes was due to caspases, we examined extracts from untreated fresh thymocytes, or from thymocytes treated with dexamethasone.
For `CC(C)C[C@H](NC(=O)[C@H]1O[C@@H]1C(=O)O)C(=O)NCCCCN=C(N)N` [Compound E64], the “inhibition of apoptotic DEVDase activity” value is recorded as “lack of inhibition”.

For `CC(=O)N[C@@H](CC(=O)O)C(=O)N[C@@H](CCC(=O)O)C(=O)N[C@H](C(=O)N[C@H](C=O)CC(=O)O)C(C)C` [DEVDCHO], the “inhibition of apoptotic DEVDase activity” value is recorded as “complete inhibition”.

Turning to `NC(=O)CI` [iodoacetamide], the “inhibition of apoptotic DEVDase activity” value is “inhibition”.

Turning to `CC(=O)N[C@@H](CC(C)C)C(=O)N[C@@H](CC(C)C)C(=O)N[C@H](C=O)CCCNC(=N)N` [leupeptin], the “inhibition of apoptotic DEVDase activity” value is recorded as “lack of inhibition”.

Still in this data set, the particulars now being: on a cell basis.
Regarding “KDPC5GDEVDGIDGC5PKGY (KDP[C5]GDEVDGIDG[C5]PKGY; reading uncertain; also: printed as KDPC5GDEVDGIDGC5PKGY) [PhiPhiLux, cell-permeable fluorogenic caspase 3/7 substrate from OncoImmunin, Inc]”, the “cleavage by apoptotic thymocyte extracts relative to fresh thymocyte extracts” value was 25 fold.

Tested on in the next data set: not given
Experiment: not given
As to conditions: doubly labeled NorFes, Packard et al. 1998; cited from earlier work.
As for diethylrhodamine, the “free energy of activation of disruption of homodimers” value was 2.4 kcal/mol.

Consider `CN(C)c1ccc2c(-c3ccccc3C(=O)[O-])c3ccc(N(C)C)cc3[o+]c2c1` [tetramethylrhodamine], for which the “free energy of activation of disruption of homodimers” value is reported as “at least 1.7 kcal/mole”.

Still in this data set, the particulars now being: free dye in solution; cited from earlier work.
For the compound `CCN(CC)c1ccc2c(-c3ccccc3C(=O)O)c3ccc(=[N+](CC)CC)cc-3oc2c1.[Cl-]` [Rhodamine B], the “concentration above which ground-state dimerization of free dye in solution was observed” value is “higher than 6×10^−4 M”.

For `O=C1OC2(c3ccccc31)c1cc(Br)c(O)c(Br)c1Oc1c2cc(Br)c(O)c1Br` [Eosin], the “concentration above which ground-state dimerization of free dye in solution was observed” value is “higher than 2.8×10^−2 M”.

Tested on in another data set: not listed separately
As to the kind of experiment: Ground-state (H-type) dimer formation by absorption spectroscopy. It is filed as physicochemical. Particulars: homodoubly-labeled peptides. An excerpt:
This was indicated by shift of absorption maxima to shorter wavelengths as well as a shape change of the absorption spectra as compared with the spectra for the enzyme digested doubly-labeled samples. Upon cleavage with elastase, the ground-state dimers were destroyed and the resulting spectra were the same as a solution containing equal concentrations of the respective singly labeled peptides.
For example, NorFes, an undecapeptide which is cleaved by the serine protease elastase, was homodoubly labeled on opposite sides of its cleavage site with six fluorophores in order to identify structural elements of dyes which influence intramolecular H-type dimer formation.
Consider “F1-DEVDGIDPK[F1]GY ({F1(3)}-DEVDGIDPK(F1(3))GY)”, for which the “dye-dye (ground-state, H-type) dimer formation / spectral change” value was “did not allow the formation of productive H-type dimers”.

Take “F1-PDEVDGIDPK[F1]GY ({F1(3)}-PDEVDGIDPK(F1(3))GY)”: the “dye-dye (ground-state, H-type) dimer formation / spectral change” value is “did not allow the formation of productive H-type dimers”.

As to `c1cc2ccc3cccc4ccc(c1)c2c34` [pyrene], the “dye-dye (ground-state, H-type) dimer formation / spectral change” value is “No spectral changes were observed”.
